One assay concerns the target T1, DDR1 (Homo sapiens, UniProt Q08345).
T1 construct: purchased Carna Biosciences
Briefly: LanthaScreen Europium Kinase Binding assay, DDR1. To be noted: 5 nM DDR1, 20 nM Kinase Tracer 178, 1 h at rt; Ki from IC50 by Cheng-Prusoff; read-out: Ki DDR1. As to the method:
(§1) DDR1 and DDR2 binding assays were performed using Life Technologies LanthaScreen™ Europium Kinase Binding assay. […] IC50 values were determined in GraphPad Prism 7.0 software, using 4 parameter model: log (inhibitor) vs. response. IC50 values were converted in Ki using the Cheng-Prusoff equation (Ki-IC50/(1+ [Tracer]/Kd).
For orientation: In TR-FRET formats the signal depends on donor and acceptor labels being close together.

Another assay deals with T2, DDR2 (Homo sapiens, UniProt Q16832).
T2 construct: purchased Life Technologies
T2 sequence (Q16832 22-855): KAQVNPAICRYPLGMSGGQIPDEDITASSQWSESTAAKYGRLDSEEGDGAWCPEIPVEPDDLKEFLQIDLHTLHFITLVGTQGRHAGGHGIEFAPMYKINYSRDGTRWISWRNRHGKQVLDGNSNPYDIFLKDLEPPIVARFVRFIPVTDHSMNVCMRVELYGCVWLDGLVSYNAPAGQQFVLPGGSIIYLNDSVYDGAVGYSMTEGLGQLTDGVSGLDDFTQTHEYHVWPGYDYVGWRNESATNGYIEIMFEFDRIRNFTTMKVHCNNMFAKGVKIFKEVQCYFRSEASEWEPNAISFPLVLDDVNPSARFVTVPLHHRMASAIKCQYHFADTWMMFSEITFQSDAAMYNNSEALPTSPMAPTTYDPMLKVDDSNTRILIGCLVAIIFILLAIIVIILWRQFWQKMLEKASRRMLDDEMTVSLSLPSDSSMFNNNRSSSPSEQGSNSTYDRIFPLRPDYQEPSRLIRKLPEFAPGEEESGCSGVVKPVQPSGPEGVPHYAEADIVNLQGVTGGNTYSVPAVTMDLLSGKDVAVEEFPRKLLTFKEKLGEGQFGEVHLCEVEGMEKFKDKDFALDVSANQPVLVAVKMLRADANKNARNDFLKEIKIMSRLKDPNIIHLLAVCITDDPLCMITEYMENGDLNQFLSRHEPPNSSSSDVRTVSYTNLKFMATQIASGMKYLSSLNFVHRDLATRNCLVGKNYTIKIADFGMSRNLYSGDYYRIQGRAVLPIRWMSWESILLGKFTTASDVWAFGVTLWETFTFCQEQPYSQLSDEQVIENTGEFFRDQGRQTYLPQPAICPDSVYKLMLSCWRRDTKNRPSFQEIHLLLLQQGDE
Briefly: LanthaScreen Europium Kinase Binding assay, DDR2. To be noted: 5 nM DDR2, 10 nM Kinase Tracer 178, 1 h at rt; Ki from IC50 by Cheng-Prusoff; read-out: Ki DDR2. As to the method: as §1

A word on the Ki: it is a measure of affinity in units of concentration, obtained from inhibition or displacement.

T1 sequence (Q08345 19-913): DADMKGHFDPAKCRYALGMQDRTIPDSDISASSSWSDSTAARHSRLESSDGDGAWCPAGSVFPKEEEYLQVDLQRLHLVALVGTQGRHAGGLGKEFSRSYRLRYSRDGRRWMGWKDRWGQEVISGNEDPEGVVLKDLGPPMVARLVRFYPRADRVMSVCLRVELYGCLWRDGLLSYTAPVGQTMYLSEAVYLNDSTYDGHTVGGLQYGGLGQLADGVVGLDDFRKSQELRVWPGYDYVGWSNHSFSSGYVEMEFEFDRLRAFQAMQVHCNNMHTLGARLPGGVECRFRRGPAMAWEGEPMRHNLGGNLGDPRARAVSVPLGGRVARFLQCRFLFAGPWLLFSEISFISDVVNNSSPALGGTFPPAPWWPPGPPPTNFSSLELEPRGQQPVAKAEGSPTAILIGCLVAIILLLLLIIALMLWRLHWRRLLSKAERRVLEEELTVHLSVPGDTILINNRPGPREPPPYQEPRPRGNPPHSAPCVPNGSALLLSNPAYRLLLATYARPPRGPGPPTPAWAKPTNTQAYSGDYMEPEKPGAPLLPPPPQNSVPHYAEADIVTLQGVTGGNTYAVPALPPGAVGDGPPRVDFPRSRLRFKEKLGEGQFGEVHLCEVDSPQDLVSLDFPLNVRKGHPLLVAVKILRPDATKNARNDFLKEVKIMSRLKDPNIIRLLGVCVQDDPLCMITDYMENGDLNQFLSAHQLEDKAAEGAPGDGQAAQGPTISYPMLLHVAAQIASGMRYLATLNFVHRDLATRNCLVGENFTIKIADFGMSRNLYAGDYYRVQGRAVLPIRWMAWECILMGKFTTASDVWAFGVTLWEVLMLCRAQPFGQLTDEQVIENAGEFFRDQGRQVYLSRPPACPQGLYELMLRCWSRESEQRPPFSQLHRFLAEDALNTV

Regarding `COc1ccc(OC(F)(F)F)cc1NC(=O)NC1CC2(C1)CN(C(=O)c1ccnc3ccsc13)C2` [Example 48, 1-(2-methoxy-5-(trifluoromethoxy)phenyl)-3-(2-(thieno[3,2-b]pyridine-7-carbonyl)-2-azaspiro[3.3]heptan-6-yl)urea], the Ki at DDR1 is less than 5 nM; at DDR2 it was 5 to 25 nM.
For `O=C(Nc1cncc(C(F)(F)F)c1)NC1CC2(C1)CN(C(=O)c1ccnc3ccsc13)C2` [Example 49, 1-(2-(thieno[3,2-b]pyridine-7-carbonyl)-2-azaspiro[3.3]heptan-6-yl)-3-(5-(trifluoromethyl)pyridin-3-yl)urea], the Ki at DDR1 and at DDR2 was less than 5 nM in each case.
As for `CN(C(=O)Nc1cccc(CC(F)(F)F)c1)C1CC2(C1)CN(C(=O)c1cnn3ccn(C)c13)C2` [Example 50, 1-methyl-1-(2-(1-methyl-1H-imidazo[1,2-b]pyrazole-7-carbonyl)-2-azaspiro[3.3]heptan-6-yl)-3-(3-(2,2,2-trifluoroethyl)phenyl)urea], the Ki at DDR1 was less than 5 nM; at DDR2, 5 to 25 nM.
Regarding `Cn1ccn2ncc(C(=O)N3CC4(CC(NC(=O)Nc5cncc(OC(F)(F)F)c5)C4)C3)c12` [Example 51, 1-(2-(1-methyl-1H-imidazo[1,2-b]pyrazole-7-carbonyl)-2-azaspiro[3.3]heptan-6-yl)-3-(5-(trifluoromethoxy)pyridin-3-yl)urea], the Ki is less than 5 nM at DDR1 and 5 to 25 nM on DDR2.
Turning to `COc1ccc(OC(F)(F)F)cc1NC(=O)N(C)C1CC2(C1)CN(C(=O)c1cnn3ccn(C)c13)C2` [Example 52, 3-(2-methoxy-5-(trifluoromethoxy)phenyl)-1-methyl-1-(2-(1-methyl-1H-imidazo[1,2-b]pyrazole-7-carbonyl)-2-azaspiro[3.3]heptan-6-yl)urea], the Ki was less than 5 nM at DDR1 and 5 to 25 nM on DDR2.
Taken in the same sequence, the figures for `CN(C(=O)Nc1cc(C#N)cc(C(F)(F)F)c1)C1CC2(C1)CN(C(=O)c1cnn3ccn(C)c13)C2` [Example 53, 3-(3-cyano-5-(trifluoromethyl)phenyl)-1-methyl-1-(2-(1-methyl-1H-imidazo[1,2-b]pyrazole-7-carbonyl)-2-azaspiro[3.3]heptan-6-yl)urea] were less than 5 nM and 5 to 25 nM.
In the case of `COc1ccc(OC(F)(F)F)cc1NC(=O)NC1CC2(C1)CN(C(=O)c1cnc3cccnn13)C2` [Example 54, 1-(2-(imidazo[1,2-b]pyridazine-3-carbonyl)-2-azaspiro[3.3]heptan-6-yl)-3-(2-methoxy-5-(trifluoromethoxy)phenyl)urea], the Ki on DDR1 was less than 5 nM; at DDR2, 5 to 25 nM.
As to `COc1ccc(OC(F)(F)F)cc1NC(=O)NC1CC2(C1)CN(C(=O)c1cnn3cccnc13)C2` [Example 55, 1-(2-methoxy-5-(trifluoromethoxy)phenyl)-3-(2-(pyrazolo[1,5-a]pyrimidine-3-carbonyl)-2-azaspiro[3.3]heptan-6-yl)urea], the Ki at DDR1 was less than 5 nM; at DDR2, 5 to 25 nM.
For the compound `Cn1ccn2ncc(C(=O)N3CC4(CC(NC(=O)Nc5cc(C(F)(F)F)ccc5OCCN5CCOCC5)C4)C3)c12` [Example 56, 1-(2-(1-methyl-1H-imidazo[1,2-b]pyrazole-7-carbonyl)-2-azaspiro[3.3]heptan-6-yl)-3-(2-(2-morpholinoethoxy)-5-(trifluoromethyl)phenyl)urea], the Ki on DDR1 is less than 5 nM; at DDR2, 5 to 25 nM.
Take `COc1ccc(OC(F)(F)F)cc1NC(=O)NC1CC2(C1)CN(C(=O)c1cnc3cnccn13)C2` [Example 57, 1-(2-(imidazo[1,2-a]pyrazine-3-carbonyl)-2-azaspiro[3.3]heptan-6-yl)-3-(2-methoxy-5-(trifluoromethoxy)phenyl)urea]: the Ki at DDR1 was less than 5 nM; on DDR2, 5 to 25 nM.
On to `Cn1cc(C(F)(F)F)cc(NC(=O)NC2CC3(C2)CN(C(=O)c2cnn4ccsc24)C3)c1=O` [Example 58, 1-(1-methyl-2-oxo-5-(trifluoromethyl)-1,2-dihydropyridin-3-yl)-3-(2-(pyrazolo[5,1-b]thiazole-7-carbonyl)-2-azaspiro[3.3]heptan-6-yl)urea], for which the inhibitory constant (Ki) at DDR1 was less than 5 nM; at DDR2 it was 5 to 25 nM.
Taken in the same sequence, the figures for `O=C(Nc1cc(C(F)(F)F)ccn1)NC1CC2(C1)CN(C(=O)c1cnn3ccsc13)C2` [Example 59, 1-(2-(pyrazolo[5,1-b]thiazole-7-carbonyl)-2-azaspiro[3.3]heptan-6-yl)-3-(4-(trifluoromethyl)pyridin-2-yl)urea] were less than 5 nM and 5 to 25 nM.
Taken in the same sequence, the figures for `CN(C(=O)Nc1cc(F)cc(C(F)(F)F)c1)C1CC2(C1)CN(C(=O)c1cnn3ccsc13)C2` [Example 60, 3-(3-fluoro-5-(trifluoromethyl)phenyl)-1-methyl-1-(2-(pyrazolo[5,1-b]thiazole-7-carbonyl)-2-azaspiro[3.3]heptan-6-yl)urea] were less than 5 nM and less than 5 nM.
In the case of `Cc1ccc(OC(F)(F)F)cc1NC(=O)NC1CC2(C1)CN(C(=O)c1cnn3ccn(C)c13)C2` [Example 61, 1-(2-(1-methyl-1H-imidazo[1,2-b]pyrazole-7-carbonyl)-2-azaspiro[3.3]heptan-6-yl)-3-(2-methyl-5-(trifluoromethoxy)phenyl)urea], the Ki at DDR1 was less than 5 nM; at DDR2, 5 to 25 nM.
For `COc1ccc(OC(F)(F)F)cc1NC(=O)NC1CC2(C1)CN(C(=O)c1ncnc3ccsc13)C2` [Example 62, 1-(2-methoxy-5-(trifluoromethoxy)phenyl)-3-(2-(thieno[3,2-d]pyrimidine-4-carbonyl)-2-azaspiro[3.3]heptan-6-yl)urea], in that order: less than 5 nM and 5 to 25 nM.
Taken in the same sequence, the figures for `Cn1ccn2ncc(C(=O)N3CC4(CC(NC(=O)Nc5cccc(C(F)F)c5)C4)C3)c12` [Example 63, 1-(3-(difluoromethyl)phenyl)-3-(2-(1-methyl-1H-imidazo[1,2-b]pyrazole-7-carbonyl)-2-azaspiro[3.3]heptan-6-yl)urea] were less than 5 nM and 5 to 25 nM.
For `CN(C(=O)Nc1cc(F)cc(C(F)(F)F)c1)C1CC2(C1)CN(C(=O)c1cnn3ccn(C)c13)C2` [Example 64, 3-(3-fluoro-5-(trifluoromethyl)phenyl)-1-methyl-1-(2-(1-methyl-1H-imidazo[1,2-b]pyrazole-7-carbonyl)-2-azaspiro[3.3]heptan-6-yl)urea], in that order: less than 5 nM and 5 to 25 nM.
Consider `COc1ccc(C(F)(F)F)cc1NC(=O)NC1CC2(C1)CN(C(=O)c1cnn3ccn(C)c13)C2` [Example 65, 1-(2-methoxy-5-(trifluoromethyl)phenyl)-3-(2-(1-methyl-1H-imidazo[1,2-b]pyrazole-7-carbonyl)-2-azaspiro[3.3]heptan-6-yl)urea], for which the inhibitory constant (Ki) on DDR1 is less than 5 nM; on DDR2 it was 5 to 25 nM.
Taken in the same sequence, the figures for `Cn1ccn2ncc(C(=O)N3CC4(CC(NC(=O)Nc5cc(C(F)F)ccn5)C4)C3)c12` [Example 66, 1-(4-(difluoromethyl)pyridin-2-yl)-3-(2-(1-methyl-1H-imidazo[1,2-b]pyrazole-7-carbonyl)-2-azaspiro[3.3]heptan-6-yl)urea] were less than 5 nM and 5 to 25 nM.
Taken in the same sequence, the figures for `Cn1ccn2ncc(C(=O)N3CC4(CC(NC(=O)Nc5cccc(OC(F)F)c5)C4)C3)c12` [Example 67, 1-(3-(difluoromethoxy)phenyl)-3-(2-(1-methyl-1H-imidazo[1,2-b]pyrazole-7-carbonyl)-2-azaspiro[3.3]heptan-6-yl)urea] were less than 5 nM and 5 to 25 nM.
For `COc1ccc(OC(F)(F)F)cc1NC(=O)NC1CC2(C1)CN(C(=O)c1cnn3ccccc13)C2` [Example 68, 1-(2-methoxy-5-(trifluoromethoxy)phenyl)-3-(2-(pyrazolo[1,5-a]pyridine-3-carbonyl)-2-azaspiro[3.3]heptan-6-yl)urea], in that order: less than 5 nM and 5 to 25 nM.
With `COc1ccc(OC(F)(F)F)cc1NC(=O)NC1CC2(C1)CN(C(=O)c1cnn3ccc(N4CCN(C)CC4)cc13)C2` [Example 69, 1-(2-methoxy-5-(trifluoromethoxy)phenyl)-3-(2-(5-(4-methylpiperazin-1-yl)pyrazolo[1,5-a]pyridine-3-carbonyl)-2-azaspiro[3.3]heptan-6-yl)urea], the Ki is less than 5 nM at DDR1 and 5 to 25 nM on DDR2.

The values are drawn from US20260285855A1, “HETEROARYL DERIVATIVES AS DDRS INHIBITORS” (CHIESI FARMACEUTICI S.P.A., priority 2023, published 2026).
